US20250082650A1, “COMBINED USE OF MULTIKINASE INHIBITOR” (TRANSTHERA SCIENCES (NANJING), INC., priority 2021, published 2025)

Tests used:
[1] = system: mouse colon cancer cell CT26.wt subcutaneous homograft tumor; test: In vivo pharmacodynamic study, CT26.wt subcutaneous homograft tumor model, combination with PD-1 antibody; conditions: CT26.wt tumor-bearing Balb/c mice, day 13; Compound 1 15 mg/kg PO QD; PD-1 antibody 10 mg/kg IP BIW; 1-14 days
Description: Example 5: In Vivo Pharmacodynamic Study of the Compound of the Present Invention Combined with PD-1 Antibody on Mouse Colon Cancer Cell CT26.Wt Subcutaneous Homograft Tumor Model
Test sample: compound 1 of the present invention, having a structure shown above.
CT26.wt cells: mouse colon cancer cells from the Cell Bank of the Chinese Academy of Sciences.
Balb/c mice, 6- to 8-week-old, female, from Beijing Vital River Laboratory Animal Technology Co., Ltd.
PD-1 antibody: InVivoMAb anti-mouse PD-1, clone number: RMP1-14, company: BioXcell, Cat. No. BE0146.
CT26.wt cells were cultured in monolayer in vitro under the condition of an RPMI1640 medium supplemented with 10% heat-inactivated fetal bovine serum and 1% penicillin-streptomycin double antibody, and the culture was carried out at 37° C. and 5% CO2. […] When the cells were in the exponential growth phase, the cells were harvested, counted, and inoculated.
0.1 mL of a cell suspension containing about 1×10^6 CT26.wt cells (cells suspended in serum-free basal RPMI1640 medium) was inoculated subcutaneously into the left back skin of female Balb/c mice. […] Grouping method: Animals were weighed before administration and tumor volumes were measured. […]
Animals were monitored daily for health status and mortality, body weight and tumor volume were measured twice a week, and samples were collected after the last administration. […]

[2] = system: IDO-1 expression in Hela cells; test: Regulation of IDO protein levels in Hela cells (western blot); type: cell-based; conditions: interferon 50 ng/mL, co-incubation 16 h, 10-10000 nM, FIG. 2
Description: Example 6: Study on Regulation of IDO Protein Levels in Hela Cells by the Compound of the Present Invention
Cells: Hela Cells from Cobioer.
Reagents: DMEM medium, fetal bovine serum, penicillin, streptomycin, […] from SinoBiological, protein loading buffer, RIPA protein lysis buffer, protease inhibitor, BCA protein content assay kit, trihydroxymethyl aminomethane, sodium dodecyl sulfate, ammonium persulfate, 30% Acry-Bis solution, phosphate buffer, Tween 20, bovine serum albumin, GAPDH antibody (rabbit) from CST company, IDO-1 antibody (rabbit) from CST, anti-rabbit secondary antibody from CST, and protein marker.
Cell culture and plating: Hela cells were cultured in a DMEM medium containing 10% fetal bovine serum and 1% penicillin-streptomycin double antibody and incubated in a water-jacketed incubator at 37° C. and 5% CO2. Subculture treatment was carried out in a 1:4 ratio. When the cells were in the exponential growth phase, the cells were harvested, counted, plated at a density of 5×10^5 cells/well in a 6-well cell culture plate, and cultured overnight. […]
Protein content assay and sample configuration: Protein content in each well was measured by using a BCA kit and Nanodrop, and according to the detection result, a sample loading buffer and a lysis buffer were added to adjust to a system of […] of protein/10 μL for sample loading of Western Blot detection. […]

[3] = system: mouse B cell lymphoma A20 subcutaneous homograft tumor; test: In vivo pharmacodynamic study, A20 subcutaneous homograft tumor model, combination with PD-L1 antibody; conditions: A20 tumor-bearing Balb/c mice; Compound 1 7.5 mg/kg oral Qd; PD-L1 antibody 10 mg/kg IP Q3d; 19 days
Experimental: Example 7: In Vivo Pharmacodynamic Study of the Compound of the Present Invention Combined with PD-L1 on Mouse B Cell Lymphoma A20 Subcutaneous Homograft Tumor Model
A20 cells: mouse B cell lymphoma cells from ATCC.
Balb/c mice, 6- to 8-week-old, female, from Zhejiang Vital River Laboratory Animal Technology Co., Ltd.
(§1) PD-L1 antibody: InVivoMAb anti-mouse PD-L1 (B7-H1), clone number: 10F.9G2 (IgG2b), company: BioXcell, Cat. No. BE0101.
A20 cells were cultured in monolayer in vitro. When the cells were in the exponential growth phase, the cells were harvested, counted, and inoculated.
(§2) 0.04 mL of a cell suspension containing about 6×10^5 A20 cells was inoculated subcutaneously into the back skin of female Balb/c mice. The mice were grouped for administration when the average volume of tumors reached approximately 60 mm^3. Grouping method: Animals were weighed before administration and tumor volumes were measured. Grouping was designed in blocks according to the tumor volume, with 8 mice per group.
Administration was carried out as in Table 4 below.
(§3) Animals were monitored daily for health status and mortality, body weight and tumor volume were measured twice a week, and samples were collected after the last administration. The therapeutic effect of tumor volume was evaluated by TGI %, and the evaluation was conducted as shown in Example 5.

[4] = system: mouse colon cancer MC38 subcutaneous homograft tumor; test: In vivo pharmacodynamic study, MC38 subcutaneous homograft tumor model, combination with PD-L1 antibody; conditions: MC38 tumor-bearing C57BL/6 mice; Compound 1 7.5 mg/kg oral Qd; PD-L1 antibody 5 mg/kg IP Q3d; 25 days
Experimental: Example 8: In Vivo Pharmacodynamic Study of the Compound of the Present Invention Combined with PD-L1 on Mouse Colon Cancer MC38 Subcutaneous Homograft Tumor Model
MC38 cells: mouse colon cancer cells from ATCC.
(§4) C57BL/6 mice, 6- to 8-week-old, female, from Shanghai Slac Laboratory Animal Co., Ltd.
as §1
MC38 cells were cultured in monolayer in vitro. When the cells were in the exponential growth phase, the cells were harvested, counted, and inoculated.
as §2, with “3×10^5 MC38” for “6×10^5 A20”, “C57BL/6” for “Balb/c”
Administration was carried out as in Table 6 below.
as §3

[5] = system: mouse pancreatic cancer Pan02 subcutaneous homograft tumor; test: In vivo pharmacodynamic study, Pan02 subcutaneous homograft tumor model, combination with PD-L1 antibody; conditions: Pan02 tumor-bearing C57BL/6 mice; Compound 1 7.5 mg/kg oral Qd; PD-L1 antibody 10 mg/kg IP Q3d; 25 days
Experimental: Example 9: In Vivo Pharmacodynamic Study of the Compound of the Present Invention Combined with PD-L1 on Mouse Pancreatic Cancer Pan02 Subcutaneous Homograft Tumor Model
Pan02 cells: mouse pancreatic cancer cells from ATCC.
as §4
PD-L1 antibody: InVivoMAb anti-mouse PD-L1 (B7-H1), clone number: 10F.9G2 (IgG2b), company: BioXcell, Cat. No. BE0101
Pan02 cells were cultured in monolayer in vitro. When the cells were in the exponential growth phase, the cells were harvested, counted, and inoculated.
as §2, with “0.06” for “0.04”, “1×10^6 Pan02” for “6×10^5 A20”, “C57BL/6” for “Balb/c”, “7” for “8”
Administration was carried out as in Table 8 below.
as §3

[6] = system: endometrial cancer; conditions: PD-1 antibody combined with E7080, endometrial cancer, ASCO 2017 clinical data; cited from earlier work

In the case of `Cc1[nH]nc2c1N=C(c1ccccc1Cl)c1cnc(N3CCOCC3)cc1N2` [Compound 1, 4-(5-(2-chlorophenyl)-3-methyl-2,10-dihydropyrazolo[4,3-b]pyrido[4,3-e][1,4]diazepin-8-yl)morpholine], the “TGI (tumor volume inhibition rate)” value [1] is reported as 48%, the Tumor volume [1] is reported as 1150 ± 142 mm^3 and the “Expression of IDO-1 in Hela cells” value [2] is reported as “could effectively reduce the expression of IDO-1”. It also gave a TGI [3] of 26%, a Tumor volume [3] of 519 mm^3 and a TGI [4] of 50%. For the same compound, the Tumor volume [4] was 554 mm^3, the TGI [5] was 71% and the Tumor volume [5] was 921 mm^3.

In the case of `COc1cc2nccc(Oc3ccc(NC(=O)NC4CC4)c(Cl)c3)c2cc1C(N)=O` [Compound E7080], the Control rate [6] is given as 96%.
